# Values joined by “and” are separate entries in the source; they are usually repeats but may differ in a detail not shown here. Identical values can stand only once.
# Key:
# [1] = test system: rice blast (Magnaporthe grisea); assay: microbe, parasite or virus in culture; format: cell-based; conditions: for Activity against rice blast in vitro (%): Table 10; for inhibition at 0.03 µg/mL / inhibition at 0.3 µg/mL: Pyricularia oryzae, read-out: Inhibition rate against rice blast (%)
# [2] = test system: cucumber gray mold (Botrytis cinerea); assay: microbe, parasite or virus in culture; format: cell-based; conditions: read-out: Inhibition rate against cucumber gray mold (%)
# [3] = test system: cucumber downy mildew (Pseudoperonospora cubensis); assay: whole plant or invertebrate; format: in vivo; conditions: for pest or weed control at 3.125 µg/mL / pest or weed control at 12.5 µg/mL / pest or weed control at 50 µg/mL: Pseudoperonospora cubensis, 168 h, read-out: Protectant activity (%) against cucumber downy mildew in vivo
# [4] = test system: corn rust (Puccinia sorghi)
# [5] = test system: rice sheath blight (Rhizoctonia solani Palo); format: cell-based
# [6] = test system: cucumber fusarium wilt (Fusarium oxysporum f. sp.); format: cell-based
# [7] = test system: pear scab (Fusicladium pirina); format: cell-based
# [8] = test system: cotton nthracnose (Colletotrichum gossypii Southw.); format: cell-based
# [9] = test system: rape sclertiniose (Sclerotinia sclerotiorum); format: cell-based
SMILES,inhibition at 0.03 µg/mL [1],inhibition at 0.3 µg/mL [1],inhibition at 0.03 µg/mL [2],inhibition at 0.1 µg/mL [2],inhibition at 0.3 µg/mL [2],pest or weed control at 3.125 µg/mL [3],pest or weed control at 12.5 µg/mL [3],pest or weed control at 50 µg/mL [3],other results
Cc1cc([N+](=O)[O-])cc([N+](=O)[O-])c1Nc1c(Cl)cc(Cl)cc1Cl [contrast ACS],0%,0%,0%,0%,0%,0%,0%,0%,Activity against rice blast in vitro (%) ([1]; 0.9 mg/L): 0%; Activity against rice blast in vitro (%) ([1]; 2.8 mg/L): 0%; Activity against rice blast in vitro (%) ([1]; 8.3 mg/L): 0%; Activity against rice blast in vitro (%) ([1]; 25 mg/L): 0%; Protectant activity against cucumber downy mildew in vivo (%) ([3]; in vivo): 0%; Protectant activity (%) against corn rust in vivo [4]: 0%
COc1ccc(C(=CC(=O)N2CCOCC2)c2ccc(Cl)cc2)cc1OC [dimethomorph],–,–,–,–,–,35%,80%,100%,–
c1ccc(Nc2ccccc2)cc1 [diphenylamine],–,–,–,–,–,0%,0%,0%,–
O=[N+]([O-])c1cc(C(F)(F)F)c(Cl)c([N+](=O)[O-])c1Nc1ncc(C(F)(F)F)cc1Cl [fluazinam],50%,100%,0%,80%,100%,40%,95%,100%,"Activity in vitro (%), rice sheath blight [5]: 97% and 83% and 69%; Activity in vitro (%), cucumber fusarium wilt [6]: 92% and 85% and 56%; Activity in vitro (%), pear scab [7]: 94% and 89% and 47%; Activity in vitro (%), cotton nthracnose [8]: 100% and 97% and 71%; Activity in vitro (%), rape sclertiniose [9]: 100% and 97% and 57%"
Cc1c(Cl)c([N+](=O)[O-])cc([N+](=O)[O-])c1Cl [intermediate B],–,–,–,–,–,0%,0%,0%,–
Nc1c(Cl)cc([N+](=O)[O-])cc1Cl [intermediate C],–,–,–,–,–,0%,0%,0%,–

# Source: patent US9061967B2 (priority 2010, dated 2015)
